How the values were obtained:
Type in all cases: cell-based, human
LNCaP-BRCA2-RB1 cells = test: MTT cell growth with PARP inhibitors; settings: LNCaP-BRCA2-RB1 vs BRCA2-null LNCaP; olaparib 3 μM, talazoparib 0.005 μM (FIG. 2E)
Procedure: (§1) Scr-CRISPR and BRCA2-CRISPR2 cells were also transfected with non-targeting shRNA (scr-Sh) for control of shRNA. RHoGDI served as the loading control. […] Equivalent volume of DMSO was used as placebo treatment. Cell growth was measured by MTT assay; SD, p-values were determined by Student's t-test. […] FIG. 2C (2nd and 3rd rows) show the immunofluorescence (400× magnification) of F-actin filament stained with phalloidin in indicated CRISPR/shRNA-infected LNCaP cells. Nuclei were stained with DAPI (blue). […] 5×10^3 indicated cells were plated on the top of Boyden chamber (see Example 1) in serum-free media; 10% serum in the bottom chamber was used as chemo-attractant. After 48 hours, cells in the lower side of the chamber were fixed, stained, and photographed (100× magnification). […] Nuclei were stained with DAPI (blue). […] The graphs show cell growth measured by MTT assay (±SD); P-values determined by Student's t-test. […] RNA sequencing was analyzed by Partek.
(§2) To generate BRCA2-RB1 knockout-knockdown LNCaP cells, parental LNCaP cells were first infected with lentivirus containing BRCA2 gRNA or scr gRNA. Pooled population of the stable cells were established by puromycin selection and analyzed by western blot and qPCR. BRCA2-knockout or scr LNCaP cells were infected with lentivirus containing RB1 shRNA followed by hygromycin selection. BRCA2-knockout or scr (gRNA) LNCaP cells also infected with lentiviral non-targeting shRNA (scr-shRNA) were used as control. Cells within 4-10 passages after stable selection were used for the following experiments.
(§3) Cell Proliferation Assay by MTT, BrdU and Crystal Violet. For MTT assay, cells were plated at 2.5×10^3 per well in 96-well plates in complete media (10% FBS) or media supplemented with 10% charcoal-stripped serum. Cells were either treated with DMSO or with indicated inhibitors. After indicated times, cells were incubated in 0.5 mg/mL MTT (Invitrogen) for 1 hour at 37° C. MTT crystals were dissolved in isopropanol and absorbance was measured in a BioTek plate reader at […] and represented graphically.

[1] = tested on: RB1 knockdown LNCaP cells; test: MTT cell growth with PARP inhibitors; settings: RB1 knockdown vs control LNCaP cells; olaparib 3 μM, talazoparib 0.005 μM (FIG. 2E)
Procedure: as §1, §2, §3

22RV1 cells = test: MTT cell growth with PARPi or cisplatin; settings: 22RV1, BRCA2 T3033Nfs*11, RB1-wt; cisplatin 500 nM, talazoparib 5 nM, 6 days (FIG. 11D)
Procedure: as §3, with “The ploidy of each cell line is indicated. […] Equivalent volume of DMSO was used as placebo treatment. Cell growth was measured by MTT assay (see Example 1); SD, each point indicates the MTT count of each well of 96-well plate, P-values determined by Student's t-test. **P<0.01, ****P<0.0001. […] Cell Proliferation” for “Cell Proliferation”

PC3M cells = test: MTT cell growth with PARPi or cisplatin; settings: talazoparib 5 nM, 6 days, P<0.0001 (FIG. 11D)
Procedure: as §3, with “The ploidy of each cell line is indicated. […] Equivalent volume of DMSO was used as placebo treatment. Cell growth was measured by MTT assay (see Example 1); SD, each point indicates the MTT count of each well of 96-well plate, P-values determined by Student's t-test. **P<0.01, ****P<0.0001. […] Cell Proliferation” for “Cell Proliferation”

MSK-PCa3 organoid = test: MTT growth of mCRPC organoids with PARPi; settings: compared to benign organoid; 3 days (FIG. 6E)
Source text: (§4) Near-diploid benign prostate organoid is used as a control. […] GAPDH served as the loading control. […] The graphs show cell growth measured by MTT assay (±SD); P-trends determined by 2-way ANOVA.
(§5) Cell Culture. Human prostate cancer cells LNCaP, 22RV1, DU145, PC3, and VCaP were obtained from ATCC (Manassas, VA). LNCaP-C42 cells were obtained from VitroMed (Burlington, NC). The LNCaP-Abl cell line, E006AA-T cells, PC3M LAPC4 cell line were obtained. These cells were maintained in 10% FBS (LNCaP, LNCaP-C42, LAPC4, VCaP, 22RV1, DU145, PC3, PC3M, and E006AA) or 10% charcoal-stripped serum (LNCaP-Abl) supplemented with 2 mM of L-glutamine and 1×antibiotic/antimycotic (Gemini Bio-Products, Sacramento, CA) at 37° C. in 5% CO2. Human prostate epithelial cell RWPE1 was obtained from ATCC and cultured in keratinocyte serum-free medium (Thermo Fisher Scientific, Waltham, MA) at 37° C. in 5% CO2. Cells were authenticated by human short tandem repeat profiling at the MSK Integrated Genomics Operation Core. Patient-derived human prostate cancer organoids were cultured as described. Gao et al., Cell 159:176-87 (2014).
as §3

MSK-PCa1 organoid = test: MTT growth of mCRPC organoids with PARPi; settings: compared to benign organoid; 3 days (FIG. 6E)
Source text: as §4, §5, §3

BRCA2-null LNCaP cells = test: MTT cell growth of BRCA2 CRISPR-edited LNCaP cells with PARP inhibitors or cisplatin; settings: BRCA2 knockout LNCaP vs control gRNA (scr) cells; complete medium, 6 days (FIG. 7C)
Procedure: Cells infected with scrambled (scr) gRNA were used as control. Equal amount of proteins was loaded in WedgeWell 6% gel and western blot was performed. ˜400 kDa BRCA2 band is indicated by arrow. GAPDH served as loading controls for western blot and qPCR. […] Genotypes are detected by PCR amplification followed by being treated with T7 endonuclease. Wt and mutant BRCA2 are indicated by red and green arrows, respectively. […] Equivalent volume of DMSO was used as placebo treatment. Cell growth was measured by MTT assay (see Example 1); SD, P-values determined by Student's t-test. *P<0.05, **P<0.01, ***P<0.001. FIGS. 7D-7E show the growth curve (FIG. 7D) and a bar graph (FIG. 7E) representing the cell growth of LNCaP BRCA2 CRISPR-edited and non-targeting control gRNA (scr) infected cells in complete medium supplemented with enzalutamide (ENZ; indicated concentration) for 7 days or charcoal-stripped medium (CSS) for 5 days, respectively. Equivalent volume of DMSO was used as placebo treatment. Cell growth was measured by crystal violet staining assay (see Example 1) (±SD); P-values determined by Student's t-test. […] Equivalent volume of DMSO was used as placebo treatment. Cell growth was measured by MTT assay (see Example 1) (±SD); P-values determined by Student's t-test. […] Total RNA was isolated, and BRCA2 mRNA was analyzed by qPCR. […] Cell growth was measured by MTT assay; SD, P-values determined by Student's t-test.
To generate BRCA2 knockout RWPE1 cells, BRCA2 gRNA2 was cloned into LentiCRISPRv2-GFP backbone which constitutively expresses Cas9 and GFP. Lentiviral infected cells were selected by FACS sorting for GFP positive cells (twice) and analyzed by western blot. […] Loss of BRCA2 in the pooled populations of LNCaP cells was analyzed by western blot using BRCA2-specific antibodies and this pooled population of cells was used for the following experiments. […]
Cell Proliferation Assay by MTT, BrdU and Crystal Violet. […] MTT crystals were dissolved in isopropanol and absorbance was measured in a BioTek plate reader at […] and represented graphically.

Cn1ncnc1[C@H]1c2n[nH]c(=O)c3cc(F)cc(c23)N[C@@H]1c1ccc(F)cc1 [talazoparib]
cell growth inhibition (MTT) (LNCaP-BRCA2-RB1 cells): more cell growth inhibition
inhibitory effect on cell growth (MTT) [1]: could not be detected
sensitivity (cell growth, MTT) (22RV1 cells): modest sensitivity
growth inhibition compared to olaparib (2.5 μM) (PC3M cells): more growth inhibition
organoid growth (MTT) (MSK-PCa3 organoid): growth reduction
organoid growth (MTT) (MSK-PCa1 organoid): growth reduction
sensitivity (cell growth, MTT) (BRCA2-null LNCaP cells): more sensitivity

Reference: patent US20240150839A1, “METHODS FOR PREDICTING RESPONSIVENESS OF PROSTATE CANCER PATIENTS TO PARP INHIBITORS” (Memorial Sloan Kettering Cancer Center, priority 2019, published 2024)
